# Reference: ChEMBL document CHEMBL1201862, “PubChem BioAssay data set” (2004)
# “And” between values parts separate entries of the source, which are not always exact repeats. Equal entries are not always repeated.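 Method: 48-hour compound exposure of cells in 96-well plates, five concentrations, linear interpolation of endpoints. Abbreviation: GI50, concentration required for 50% inhibition of growth.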 The source made the active and inactive calls. No stated cut-off is given here; in the data, active = GI50 up to about 1.1 µM and inactive = higher.
# Legend:
# Test in all cases: inhibition of tumour cell growth, NCI panel, 48 h
# [1] = test system: HCC 2998
# [2] = test system: SK-MEL-28
# [3] = test system: 786-0
# [4] = test system: SW-620
# [5] = test system: UO-31
# [6] = test system: KM-20L2
# [7] = test system: NCI-H226
# [8] = test system: SF-539
# [9] = test system: SF-268
# [10] = test system: Malme-3M
# [11] = test system: M19-MEL
# [12] = test system: CAKI-1
# [13] = test system: A498
# [14] = test system: CCRF-CEM
# [15] = test system: SF-295
# [16] = test system: NCI-H23
# [17] = test system: LOX IMVI
# [18] = test system: OVCAR-5
# [19] = test system: SR
SMILES,GI50 [1],GI50 [2],GI50 [3],GI50 [4],GI50 [5],GI50 [6],GI50 [7],GI50 [8],GI50 [9],GI50 [10],GI50 [11],GI50 [12],GI50 [13],GI50 [14],GI50 [15],GI50 [16],GI50 [17],GI50 [18],GI50 [19]
CCN1C(=O)C(=CN)C(=O)N(CC)C1=O,> 100 µM (inactive),> 100 µM (inactive),> 100 µM (inactive),> 100 µM (inactive),58.2 µM (inactive),> 100 µM (inactive),> 100 µM (inactive),> 100 µM (inactive),> 100 µM (inactive),> 100 µM (inactive),> 100 µM (inactive),> 100 µM (inactive),> 100 µM (inactive),> 100 µM (inactive),> 100 µM (inactive),> 100 µM (inactive),> 100 µM (inactive),> 100 µM (inactive),
CC1CCC(C(C)(C)c2ccccc2)C(=O)C1 (stereo not given),> 100 µM (inactive),,> 100 µM (inactive),> 100 µM (inactive),18.3 µM (inactive),> 100 µM (inactive),,> 100 µM (inactive),> 100 µM (inactive),> 100 µM (inactive),> 100 µM (inactive),74.8 µM (inactive),> 100 µM (inactive),> 100 µM (inactive),> 100 µM (inactive),,> 100 µM (inactive),> 100 µM (inactive),
CN1C(OCc2ccccc2)c2c(ccc3c2OCO3)C2C=Cc3cc4c(cc3C21)OCO4 (stereo not given),1.63 µM (inactive),0.455 µM (active),1.36 µM (inactive),0.38 µM (active),1.32 µM (inactive),1.59 µM (inactive),1.47 µM (inactive),1.63 µM (inactive),0.475 µM (active),1.26 µM (inactive),0.19 µM (active),1.03 µM (active),,0.254 µM (active),1.47 µM (inactive),1.38 µM (inactive),0.182 µM (active),1.52 µM (inactive),0.237 µM (active)
COC(=O)CCC(NC(=S)N/N=C(\C)c1ccccn1)C(=O)OC (stereo not given),> 100 µM (inactive),66.7 µM (inactive),65.8 µM (inactive),55.3 µM (inactive),38.1 µM (inactive),32.4 µM (inactive),60.7 µM (inactive),85.7 µM (inactive),52.1 µM (inactive),45.4 µM (inactive),37.2 µM (inactive),,> 100 µM (inactive),29.6 µM (inactive),59.2 µM (inactive),> 100 µM (inactive),44.2 µM (inactive),25.9 µM (inactive),> 10 µM (inactive)
C/C(=C\c1ccccc1)C(O)S(=O)(=O)O (stereo not given),> 100 µM (inactive),> 100 µM (inactive),> 100 µM (inactive),> 100 µM (inactive),> 100 µM (inactive),> 100 µM (inactive),> 100 µM (inactive),,> 100 µM (inactive),> 100 µM (inactive),> 100 µM (inactive),> 100 µM (inactive),> 100 µM (inactive),> 100 µM (inactive),> 100 µM (inactive),> 100 µM (inactive),> 100 µM (inactive),> 100 µM (inactive),> 100 µM (inactive)
C=CCO[C@H]1CC[C@@]2(C)C(CC[C@]3(C)C2CC=C2[C@@H]4[C@@H](C)C(C)CC[C@]4(C(=O)O)CCC23C)C1(C)C (stereo not given in full),17.1 µM (inactive),15.6 µM (inactive),15.7 µM (inactive),18.5 µM (inactive),15 µM (inactive),17.3 µM (inactive),18.6 µM (inactive),17 µM (inactive),19.2 µM (inactive),19.5 µM (inactive),17.7 µM (inactive),17.9 µM (inactive),17.3 µM (inactive),13.2 µM (inactive),14.2 µM (inactive),14.9 µM (inactive),13.5 µM (inactive),,13.8 µM (inactive)
CCCCCC(=O)N[C@H]1CCc2cc(OC)c(OC)c(OC)c2-c2ccc(SC)c(=O)cc21,0.0212 µM (active),0.0223 µM (active),0.0335 µM (active),0.0177 µM (active),0.0308 µM (active),0.0154 µM (active),< 0.01 µM (active),0.0158 µM (active),0.0212 µM (active),0.0106 µM (active),0.0229 µM (active),0.0914 µM (active),0.0172 µM (active),0.0254 µM (active),0.0155 µM (active),< 0.01 µM (active),,47.3 µM (inactive),0.00421 µM (active)
COc1cccc2c1C(=O)c1c(O)c3c(c(O)c1C2=O)C[C@@](O)(C(=O)CO)C[C@@H]3OC1CC(N)C(O)C(C)O1 (stereo not given in full),314 nM (active) and 191 nM (active),,102 nM (active) and 57.5 nM (active),79.4 nM (active) and 122 nM (active),,0.879 µM (active),< 43.6 nM (active) and 58.1 nM (active),,,,0.2 µM (active),269 nM (active) and 176 nM (active),,34.8 nM (active) and 44.9 nM (active),,76.4 nM (active) and 105 nM (active),52.1 nM (active) and 44.4 nM (active),658 nM (active) and 733 nM (active),10 nM (active) and 12.2 nM (active)
